The record followed here is patent publication US20210113602A1, “USE OF 6-THIO-2'-DEOXYGUANOSINE (6-THIO-dG) TO TREAT MELANOMA” (The Board of Regents of the University of Texas System, priority 2018, published 2021).

SMILES strings stand for the structures. Entries after “also recorded” stand apart in the source; their conditions may differ.

Assay [1] relates to NRAS mutant melanoma cells. The experiment in a line: Cell death by flow cytometry (PSVue or Annexin V/PI). It is filed as cell-based.
Protocol: (FIG. 2d) NRASmut melanoma cells and non-transformed human fibroblasts were treated with 1 or 5 μM 6-thio-dG for 7 or 14 days. Cell death was assessed by PSVUe staining. Percent of apoptotic cells is shown. […] (FIGS. 2f-g) Cells were treated with 1 μM 6-thio-dG for 7 days. […] Data represent average from three independent experiments±SEM. *p<0.05; **p<0.01; ***p<0.005 in unpaired Student's t-test.
(FIG. 3f) SOD2 was silenced using shRNA. Transduced M93-047 cells were treated with DMSO or 1 μM of 6-thio-dG and cell death was assessed by Annexin V/PI straining. (FIG. 3g) M93-047 cells were transduced with a SOD2 lentiviral construct or empty vector control (pLX304). Transduced cells were treated with increasing doses (1, 2.5 and 5 μM) of 6-thio-dG for 7 days and cell death was assessed. Data represent average from three independent experiments±SEM. *p<0.05; **p<0.01; ***p<0.005 in unpaired Student's t-test.
(FIG. 4a) NRASmut melanoma cells transduced with TERT shRNA were treated 7 days post infection with 5 μM Gamitrinib (Gam) for 48 h. Cell death was assessed by Annexin V and PI staining. (FIG. 4b) NRASmut melanoma cells and non-transformed fibroblasts were treated with 1 μM 6-thio-dG for 5 days. At day 5, culture medium was replaced and cells treated with 1 μM 6-thio-dG plus 5 μM Gam for two more days. Cells were stained with Annexin V and PI and percent cell death was determined by flow cytometry. […] Data represent average of three independent experiments ±SEM. P values were calculated using unpaired Student's t-test; * p<0.05; ***p<0.005.
(Supplementary FIG. 10a) NRASmut melanoma cells were treated with 6-thio-dG (1 μ) for 7 days total. At day 5, culture medium was replaced and cells were treated with 1 μM 6-thio-dG plus 1 mM Phenformin for two more days. Percent cell death was determined by flow cytometry following staining of cells with Annexin V and Propidium iodide. Data represent average of three independent experiments +/−SEM. *p<0.05 in unpaired Student's t-test.
Assay [2] deals with NRAS mutant melanoma cells. Briefly: ROS production, H2DCFDA fluorescence. It is filed as cell-based, human. The conditions noted are these: 1 μM for 7 days. The protocol: (§1) FIGS. 2a-h. […] (FIGS. 2a-c) NRASmut melanoma cells (FIG. 2a), BRAF-V600E/NRAS mutant cells derived from melanoma patients resistant to BRAF/MEK inhibitors (FIG. 2b), or non-transformed melanocytes and fibroblasts (FIG. 2c) were treated with 6-thio-dG for 7 days. Cell viability was measured by Alamar Blue assay and calculated relative to DMSO-treated cells. (FIG. 2d) NRASmut melanoma cells and non-transformed human fibroblasts were treated with 1 or 5 μM 6-thio-dG for 7 or 14 days. Cell death was assessed by PSVUe staining. Percent of apoptotic cells is shown. (FIG. 2e) Cells were treated with DMSO or 1 μM 6-thio-dG for 14 days and telomere length was assessed by Southern blotting of TRF. Mean TRF length expressed as kilobase pairs is indicated at the bottom. (FIGS. 2f-g) Cells were treated with 1 μM 6-thio-dG for 7 days. (FIG. 2f) ROS production was measured by H2DCFDA fluorescence and normalized to MSO treated cells. (FIG. 2g) DNA damage was assessed by γH2AX staining. Data represent average from three independent experiments±SEM. *p<0.05; **p<0.01; ***p<0.005 in unpaired Student's t-test. […] Tumor volume was measured and average tumor volume (n=4)±SEM was plotted vs. time.
Measurement of reactive oxygen species. General or mitochondrial specific ROS were measured by flow cytometry H2DCFDA or MitoSoxRed (Invitrogen, Waltham, Mass.) following manufacturer's specifications.

In assay [3] the test system is BRAF-V600E/NRAS mutant cells derived from melanoma patients resistant to BRAF/MEK inhibitors. Briefly: Cell viability, Alamar Blue assay. It is filed as cell-based, human. The note with it: 7 days; relative to DMSO-treated cells. The protocol: as §1, with “staining.” for “staining. Data represent average from three independent experiments±SEM. *p<0.05; **p<0.01; ***p<0.005 in unpaired Student's t-test.”
(§2) Cell culture, viability and cell death assays. […] Cell viability was assessed following 6 hr incubation with 500 μM Alamar Blue (ThermoFisher Scientific, Waltham, Mass.) using an EnVision Xcite Multilabel plate reader (Perkin Elmer, Waltham, Mass.). […]

Assay [4] concerns NRAS mutant melanoma cells. The experiment in a line: Cell viability, Alamar Blue assay. It is filed as cell-based, human. The conditions noted are these: 7 days; relative to DMSO-treated cells. Here is the method: as §1, with “staining.” for “staining. Data represent average from three independent experiments±SEM. *p<0.05; **p<0.01; ***p<0.005 in unpaired Student's t-test.”
as §2

Assay [5] has as its system NRAS mutant melanoma cells. The experiment in a line: Mitochondrial ROS, MitoSox Red. It is filed as cell-based, human. The note with it: 1 μM 6-thio-dG for 7 days. Here is the method:
FIGS. 3a-g. Telomere dysfunction enhances oxidative stress leading to upregulation of an antioxidant program. (FIGS. 3a-d) NRASmut melanoma cells were transduced with TERT shRNA (FIG. 3a, FIG. 3c) or treated with 1 μM 6-thio-dG for 7 days (FIG. 3b, FIG. 3d). mRNA levels of the indicated genes were quantified by qRT-PCR (FIG. 3a, FIG. 3b). Mitochondrial superoxide production was measured by MitoSox Red fluorescence (FIG. 3c, FIG. 3d) and expressed as fluorescence relative to vector or DMSO controls. (FIG. 3e) NRASmut melanoma cells were treated with 1 μM of 6-thio-dG for the indicated times and SOD2 protein levels measured by Western blotting. (FIG. 3f) SOD2 was silenced using shRNA. Transduced M93-047 cells were treated with DMSO or 1 μM of 6-thio-dG and cell death was assessed by Annexin V/PI straining. (FIG. 3g) M93-047 cells were transduced with a SOD2 lentiviral construct or empty vector control (pLX304). Transduced cells were treated with increasing doses (1, 2.5 and 5 μM) of 6-thio-dG for 7 days and cell death was assessed. […]
FIGS. 4a-e. […] Cell death was assessed by Annexin V and PI staining. […] Cells were stained with Annexin V and PI and percent cell death was determined by flow cytometry. (FIGS. 4c-e) Cells were treated as in FIG. 4b and mitochondrial ROS levels were measured using Mitosox Red by FACS. […] P values were calculated using unpaired Student's t-test; * p<0.05; ***p<0.005. […]

For another assay, the system named is KRAS mutant HCT116 cells. Briefly: Cell death, Annexin V/PI. It is filed as cell-based, human. The note with it: 1 μM 6-thio-dG, 5 μM Gam.

Regarding `Nc1nc2c(ncn2[C@H]2C[C@H](O)[C@@H](CO)O2)c(=S)[nH]1` [6-thio-dG, 6-thio-2′-deoxy-guanosine], the cell death entry is listed as “led to cell death” in assay [1] (1 or 5 μM for 7 or 14 days, PSVue staining) and “did not induce substantial death” in the assay on KRAS mutant HCT116 cells. Also, in assay [1] (SOD2 lentiviral construct, 1, 2.5 and 5 μM 6-thio-dG), the “apoptosis in SOD2 overexpressing cells” value was “attenuated the apoptosis-inducing effects”. Also, the “apoptosis in SOD2 depleted cells” value in assay [1] (SOD2 shRNA, 1 μM 6-thio-dG, M93-047, WM3000) is “enhanced the ability of 6-thio-dG to induce apoptosis”. In assay [2], the ROS levels result is “increased levels”. Further, the cell viability result in assay [3] is “impaired the viability”; in assay [4], “impairs viability; also recorded: impaired the viability”. Further, the “mitochondrial ROS levels” value in assay [5] is listed as “increased mitochondrial ROS levels”.
